Data: patent publication US20060069132A1, “Azolecarboxamide herbicides” (priority 2004, published 2006)

Legend:
ducksalad [1] = experiment: Test C flooded paddy test; type: in vivo, Heteranthera limosa
cocklebur = experiment: Test B pre-/postemergence herbicide test; type: in vivo, Xanthium strumarium; settings: for Cocklebur plant response rating: postemergence, scale 0 (no effect) to 100 (complete control)
Outline: (§1)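 Test chemicals in a non-phytotoxic solvent mixture with surfactant were applied preemergence to seeded species and postemergence to plants 2-18 cm tall (1- to 4-leaf stage); rice and barnyardgrass were also tested in a flooded paddy at the 2-leaf stage. Visual rating versus controls after 13-15 days in greenhouse, scale 0 (no effect) to 100 (complete control).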

rice [2] = experiment: Test B pre-/postemergence herbicide test; type: in vivo, Oryza sativa; settings: 0 = no effect, 100 = complete control, preemergence
Outline: (§2)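 Formulation: non-phytotoxic solvent mix with surfactant. Timing: preemergence on seed and postemergence on 2–18 cm plants, applied concurrently. Readout after 13–15 d greenhouse: visual 0–100 control rating against controls.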

morningglory = experiment: Test B pre-/postemergence herbicide test; type: in vivo, Ipomoea coccinea; settings: for Morningglory plant response rating: postemergence, scale 0 (no effect) to 100 (complete control)
Outline: as §1

lambsquarters = experiment: Test B pre-/postemergence herbicide test; type: in vivo, Chenopodium album; settings: visual rating; for Lambsquarters plant response rating: postemergence, scale 0 (no effect) to 100 (complete control)
Outline: as §2

blackgrass = experiment: Test B postemergence herbicide test; type: in vivo, Alopecurus myosuroides; settings: postemergence, visual rating, scale 0 (no effect) to 100 (complete control)
Outline: (§3)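 Paddy species grown to the 2-leaf stage under flooding; blackgrass sprayed postemergence at 2–18 cm (1- to 4-leaf stage). Plants kept in a greenhouse for 13 to 15 days, then visually rated against controls on 0 (no effect) to 100 (complete control).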

giant foxtail = experiment: Test B pre-/postemergence herbicide test; type: in vivo, Setaria faberi; settings: for Foxtail, Giant plant response rating: postemergence, scale 0 (no effect) to 100 (complete control)
Outline: as §2

[3] = test system: small flower umbrella sedge; experiment: Test B flooded paddy test; type: in vivo, Cyperus difformis; settings: 1000 g ai/ha, visual rating, scale 0 to 100 (0 no effect, 100 complete control), 13 to 15 days
Outline: as §3

barnyardgrass [4] = experiment: Test C flooded paddy test; type: in vivo, Echinochloa crus-galli
Outline: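 Scoring by eye, 12–14 days post-treatment, greenhouse-held plants vs. controls; 0 no effect, 100 complete control. Sprayed at 1–4 leaves (2–18 cm); paddy barnyardgrass at 2 leaves, flooded.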

Surinam grass = experiment: Test B pre-/postemergence herbicide test; type: in vivo, Urochloa decumbens; settings: for Surinam Grass plant response rating: postemergence, scale 0 (no effect) to 100 (complete control)
Outline: as §2

velvetleaf = experiment: Test B pre-/postemergence herbicide test; type: in vivo, Abutilon theophrasti; settings: for Velvetleaf plant response rating: postemergence, scale 0 (no effect) to 100 (complete control)
Outline: as §2

rice [5] = experiment: Test B flooded paddy test; type: in vivo, Oryza sativa; settings: 1000 g ai/ha, visual rating, scale 0 to 100 (0 no effect, 100 complete control), 13 to 15 days
Outline: (§4)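 Scale 0–100: zero equals no visible effect, 100 complete control, judged by eye relative to controls. Timing: 13 to 15 days in greenhouse post-treatment. Growth stage at spraying: two leaves (paddy) or one to four leaves, 2–18 cm (postemergence).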

barnyardgrass [6] = experiment: Test B flooded paddy test; type: in vivo, Echinochloa crus-galli; settings: 1000 g ai/ha, visual rating, scale 0 to 100 (0 no effect, 100 complete control), 13 to 15 days
Outline: as §3

wild oat = experiment: Test B postemergence herbicide test; type: in vivo, Avena fatua; settings: postemergence, visual rating, scale 0 (no effect) to 100 (complete control)
Outline: as §4

barnyardgrass [7] = experiment: Test B pre-/postemergence herbicide test; type: in vivo, Echinochloa crus-galli; settings: for Barnyardgrass plant response rating: postemergence, scale 0 (no effect) to 100 (complete control)
Outline: as §1

wheat = experiment: Test B postemergence herbicide test; type: in vivo, Triticum aestivum; parameters: key to Wheat plant response rating: 0 = no effect, 100 = complete control; settings: postemergence, visual rating, scale 0 (no effect) to 100 (complete control)
Outline: as §4

rice [8] = experiment: Test C flooded paddy test; type: in vivo, Oryza sativa
Outline: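 Postemergence sprays applied to plants 2 to 18 cm tall (1- to 4-leaf stage); paddy species grown to 2-leaf stage under flooding. After 12 to 14 days in greenhouse, visual rating versus untreated controls on 0–100 scale (0 no effect, 100 complete control).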

ducksalad [9] = experiment: Test B flooded paddy test; type: in vivo, Heteranthera limosa; settings: 1000 g ai/ha, visual rating, scale 0 to 100 (0 no effect, 100 complete control), 13 to 15 days
Outline: as §3

corn = experiment: Test B pre-/postemergence herbicide test; type: in vivo, Zea mays; settings: for Corn plant response rating: postemergence, scale 0 (no effect) to 100 (complete control)
Outline: as §2

pigweed = experiment: Test B pre-/postemergence herbicide test; type: in vivo, Amaranthus retroflexus; settings: for Pigweed plant response rating: postemergence, scale 0 (no effect) to 100 (complete control)
Outline: as §2

large crabgrass = experiment: Test B pre-/postemergence herbicide test; type: in vivo, Digitaria sanguinalis; settings: for Crabgrass, Large plant response rating: postemergence, scale 0 (no effect) to 100 (complete control)
Outline: as §2

[10] = test system: smallflower umbrella sedge; experiment: Test C flooded paddy test; type: in vivo, Cyperus difformis
[11] = 62 g ai/ha, scale 0 to 100 (0 no effect, 100 complete control)
[12] = 125 g ai/ha, scale 0 to 100 (0 no effect, 100 complete control)
[13] = 250 g ai/ha, scale of 0 to 100, 0 is no effect, 100 is complete control
[14] = 500 g ai/ha, visual rating after 12 to 14 days, scale 0 to 100 (0 no effect, 100 complete control)
[15] = 125 g ai/ha, 0 = no effect, 100 = complete control, preemergence
[16] = 500 g ai/ha, visual rating, 0 = no effect, 100 = complete control, preemergence

CCNC(=O)c1ccc(F)c(NC(=O)c2sc(C(C)(C)C)nc2CC)c1 [Compound 226]
Ducksalad plant response rating (ducksalad [1]; [11]): 0 | Ducksalad plant response rating (ducksalad [1]; [12]): 0 | Ducksalad plant response rating (ducksalad [1]; [13]): 40 | Plant response rating, Ducksalad (ducksalad [1]; [14]): 65 | Cocklebur plant response rating (0 to 100 scale) (cocklebur; [15]): 0 | Plant response rating, Cocklebur (cocklebur; [16]): 0 | Cocklebur plant response rating (cocklebur; 125 g ai/ha, visual rating): 10 | Cocklebur plant response rating (cocklebur; 500 g ai/ha, visual rating): 20 | Rice plant response rating (0 to 100 scale) (rice [2]; 125 g ai/ha): 20 | Plant response rating, Rice (rice [2]; 500 g ai/ha, visual rating): 30 | Morningglory plant response rating (0 to 100 scale) (morningglory; [15]): 0 | Plant response rating, Morningglory (morningglory; [16]): 10 | Morningglory plant response rating (morningglory; 125 g ai/ha, visual rating): 30 | Morningglory plant response rating (morningglory; 500 g ai/ha, visual rating): 80 | Plant response rating, Lambsquarters (lambsquarters; 500 g ai/ha, 0 = no effect, 100 = complete control, preemergence): 90 | Lambsquarters plant response rating (lambsquarters; 125 g ai/ha): 40 | Lambsquarters plant response rating (lambsquarters; 500 g ai/ha): 60 | Blackgrass plant response rating (blackgrass; 125 g ai/ha): 20 | Blackgrass plant response rating (blackgrass; 500 g ai/ha): 20 | Foxtail, Giant plant response rating (0 to 100 scale) (giant foxtail; [15]): 20 | Plant response rating, Foxtail, Giant (giant foxtail; [16]): 70 | Foxtail, Giant plant response rating (giant foxtail; 125 g ai/ha, visual rating): 20 | Foxtail, Giant plant response rating (giant foxtail; 500 g ai/ha, visual rating): 20 | Sedge, Umbrella plant response rating [3]: 80 | Barnyardgrass plant response rating (barnyardgrass [4]; [11]): 0 | Barnyardgrass plant response rating (barnyardgrass [4]; [12]): 0 | Barnyardgrass plant response rating (barnyardgrass [4]; [13]): 50 | Plant response rating, Barnyardgrass (barnyardgrass [4]; [14]): 60 | Surinam Grass plant response rating (0 to 100 scale) (Surinam grass; [15]): 10 | Plant response rating, Surinam Grass (Surinam grass; [16]): 40 | Surinam Grass plant response rating (Surinam grass; 125 g ai/ha, visual rating): 10 | Surinam Grass plant response rating (Surinam grass; 500 g ai/ha, visual rating): 20 | Velvetleaf plant response rating (0 to 100 scale) (velvetleaf; [15]): 10 | Plant response rating, Velvetleaf (velvetleaf; [16]): 50 | Velvetleaf plant response rating (velvetleaf; 125 g ai/ha, visual rating): 20 | Velvetleaf plant response rating (velvetleaf; 500 g ai/ha, visual rating): 20 | Rice plant response rating (rice [5]): 80 | Barnyardgrass plant response rating (barnyardgrass [6]): 80 | Oat, Wild plant response rating (wild oat; 125 g ai/ha): 30 | Oat, Wild plant response rating (wild oat; 500 g ai/ha): 30 | Barnyardgrass plant response rating (0 to 100 scale) (barnyardgrass [7]; [15]): 10 | Plant response rating, Barnyardgrass (barnyardgrass [7]; [16]): 60 | Barnyardgrass plant response rating (barnyardgrass [7]; 125 g ai/ha, visual rating): 10 | Barnyardgrass plant response rating (barnyardgrass [7]; 500 g ai/ha, visual rating): 20 | Wheat plant response rating (wheat; 125 g ai/ha): 20 | Wheat plant response rating (wheat; 500 g ai/ha): 30 | Rice plant response rating (rice [8]; [11]): 0 | Rice plant response rating (rice [8]; [12]): 25 | Rice plant response rating (rice [8]; [13]): 45 | Plant response rating, Rice (rice [8]; [14]): 70 | Ducksalad plant response rating (ducksalad [9]): 70 | Corn plant response rating (0 to 100 scale) (corn; [15]): 0 | Plant response rating, Corn (corn; [16]): 20 | Corn plant response rating (corn; 125 g ai/ha, visual rating): 10 | Corn plant response rating (corn; 500 g ai/ha, visual rating): 40 | Pigweed plant response rating (0 to 100 scale) (pigweed; [15]): 40 | Plant response rating, Pigweed (pigweed; [16]): 70 | Pigweed plant response rating (pigweed; 125 g ai/ha, visual rating): 30 | Pigweed plant response rating (pigweed; 500 g ai/ha, visual rating): 60 | Crabgrass, Large plant response rating (0 to 100 scale) (large crabgrass; [15]): 20 | Plant response rating, Crabgrass, Large (large crabgrass; [16]): 100 | Crabgrass, Large plant response rating (large crabgrass; 125 g ai/ha, visual rating): 20 | Crabgrass, Large plant response rating (large crabgrass; 500 g ai/ha, visual rating): 20 | Sedge, Umbrella plant response rating [10, 11]: 10 | Sedge, Umbrella plant response rating [10, 12]: 10 | Sedge, Umbrella plant response rating [10, 13]: 40 | Plant response rating, Sedge, Umbrella [10, 14]: 70
